Molecular target: T1, hSGLT1 (Homo sapiens, UniProt P13866)
T1 construct: gene SLC5A1; hSGLT1GFP-MAP17nb: GFP fused between Q581 and E582 of hSGLT1; anti-GFP nanobody fused after E57 of MAP17 (1-57); in nanodisc; with MAP17
T1 sequence (P13866 1-581): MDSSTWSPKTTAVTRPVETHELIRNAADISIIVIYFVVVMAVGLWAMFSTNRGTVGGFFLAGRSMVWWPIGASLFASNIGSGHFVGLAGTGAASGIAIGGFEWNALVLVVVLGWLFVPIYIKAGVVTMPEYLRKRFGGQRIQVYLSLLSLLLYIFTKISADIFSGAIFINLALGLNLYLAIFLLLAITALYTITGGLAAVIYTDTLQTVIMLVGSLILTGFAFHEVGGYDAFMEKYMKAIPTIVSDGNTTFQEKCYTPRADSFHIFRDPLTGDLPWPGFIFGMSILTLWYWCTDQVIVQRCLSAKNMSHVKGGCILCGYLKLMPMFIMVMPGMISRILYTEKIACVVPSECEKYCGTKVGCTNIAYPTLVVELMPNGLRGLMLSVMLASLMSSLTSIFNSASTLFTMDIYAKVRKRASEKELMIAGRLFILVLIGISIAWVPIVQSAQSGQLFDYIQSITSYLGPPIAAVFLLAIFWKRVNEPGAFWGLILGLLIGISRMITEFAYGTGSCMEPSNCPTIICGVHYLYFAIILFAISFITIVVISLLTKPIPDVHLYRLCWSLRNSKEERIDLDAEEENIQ
T1 sequence (P13866 582-664): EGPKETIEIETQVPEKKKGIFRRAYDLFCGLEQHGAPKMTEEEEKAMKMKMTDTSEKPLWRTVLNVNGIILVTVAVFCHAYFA
T1 sequence (Q13113 1-57 partner): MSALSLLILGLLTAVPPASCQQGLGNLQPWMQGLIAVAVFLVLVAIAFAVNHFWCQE
Test: cryo-EM structure at […] Å; 1-NBD-glucose uptake inhibition in cells (IC50 […] for this construct, […] for non-tagged hSGLT1)
Format: cell-based

In the case of `CS[C@H]1O[C@@H](c2ccc(C)c(Cc3ccc(CCCC(=O)NC(C)(C)C(=O)NCCN(C)C)cc3)c2)[C@H](O)[C@@H](O)[C@@H]1O` [LX2761], the IC50 is reported as 2.3 nM.

From article PMC9616851, “Structural mechanism of SGLT1 inhibitors” (Nature Communications, 2022)
